Here are results for 15 compounds from ChEMBL document CHEMBL2385043, “Recent advances in malaria drug discovery” (Bioorg Med Chem Lett, 2013).

The structures appear in SMILES notation. pEC50, pIC50: −log10 of the molar value.

A short description of data set [1]: Half life in human. The data set is classed as ADME, organism-based. The settings on record: in vivo.
In data set [2] the test system is Plasmodium falciparum. The experiment in a line: Antiplasmodial activity against wild type Plasmodium falciparum TM4 by [3H]-hypoxanthine incorporation assay. Conditions: TM4, 3 h.
The subject of data set [3] is Plasmodium falciparum. Nature of the data set: Antiplasmodial activity against Plasmodium falciparum VS/1 expressing DHFR quadruple mutation by [3H]-hypoxanthine incorporation assay. Format: functional, organism-based.
Data set [4] concerns Plasmodium falciparum. The experiment in a line: Antiplasmodial activity against drug-sensitive Plasmodium falciparum 3D7 after 72 hrs by SYBR Green staining-based fluorescence assay. Format: functional, organism-based. The settings on record: 3D7, 72 h.
Data set [5] concerns Plasmodium falciparum. Nature of the data set: Antiplasmodial activity against multidrug-resistant Plasmodium falciparum Dd2 after 72 hrs by SYBR Green staining-based fluorescence assay. Conditions: Dd2, 72 h. The data set is classed as functional, organism-based.
In data set [6] the test system is Plasmodium falciparum. The experiment in a line: Antimalarial activity against Plasmodium falciparum infected in mouse. The data set is classed as functional.
Data set [7] has as its system Plasmodium falciparum. Nature of the data set: Antimalarial activity against multidrug-resistant Plasmodium falciparum W2 infected in ip dosed mouse assessed as reduction in parasitemia administered on day 64 post-infection. Format: functional. Conditions: 1536 h.
In data set [8] the test system is Plasmodium falciparum. The experiment in a line: Antiplasmodial activity against multidrug-resistant Plasmodium falciparum W2 infected in human erythrocytes after 72 hrs by ELISA. The data set is classed as functional, organism-based. The settings on record: W2, 72 h.
Data set [9] relates to Plasmodium berghei. Nature of the data set: Antimalarial activity against Plasmodium berghei infected in Swiss albino mouse assessed as reduction in parasitemia after 4 days by microscopic analysis relative to artesunate. The data set is classed as functional.
Data set [10] concerns Plasmodium berghei. Nature of the data set: Antimalarial activity against Plasmodium berghei infected in Swiss albino mouse assessed as reduction in parasitemia after 4 days by microscopic analysis. The data set is classed as functional. Conditions: 96 h.
The test system of data set [11] is Plasmodium falciparum. The experiment in a line: Antiplasmodial activity against drug-sensitive Plasmodium falciparum 3D7 after 24 hrs by [3H]-hypoxanthine incorporation assay. The data set is classed as functional, organism-based.
In data set [12] the test system is Plasmodium falciparum. The experiment in a line: Antiplasmodial activity against Plasmodium falciparum relative to artesunate. The data set is classed as functional.
Data set [13] has as its system Plasmodium falciparum. Nature of the data set: Antiplasmodial activity against drug-sensitive Plasmodium falciparum NF54. The data set is classed as functional, organism-based.
The test system of data set [14] is Plasmodium berghei. Nature of the data set: Antimalarial activity against erythrocytic stage of Plasmodium berghei infected in po dosed mouse administered for 3 days. The data set is classed as functional. The settings on record: 72 h.
For data set [15], the system named is Plasmodium falciparum. The experiment in a line: Antimalarial activity against Plasmodium falciparum infected in SCID mouse. Format: functional.
For data set [16], the system named is Plasmodium falciparum. The experiment in a line: Antiplasmodial activity against NITD609-resistant Plasmodium falciparum Dd2 infected in human erythrocytes after 48 hrs by [3H]-hypoxanthine incorporation assay. The data set is classed as functional, organism-based.
The subject of a further data set is Plasmodium vinckei. Nature of the data set: Antimalarial activity against Plasmodium vinckei infected in po dosed Swiss mouse. Format: functional.
Data set [17] can be described thus: Oral bioavailability in rat. Format: ADME, organism-based. The settings on record: in vivo.
Data set [18] in a line: Inhibition of Plasmodium falciparum cytochrome b-c1 complex.
The subject of data set [19] is Plasmodium falciparum. Nature of the data set: Antiplasmodial activity against asexual blood stage of Plasmodium falciparum. Format: functional, organism-based.
Data set [20] in a line: Selectivity ratio of IC50 for human cytochrome b-c1 complex to IC50 for Plasmodium falciparum cytochrome b-c1 complex.
The next data set relates to Plasmodium yoelii. The experiment in a line: Antiplasmodial activity against liver stage of Plasmodium yoelii. Format: functional, organism-based.
The test system of data set [21] is Plasmodium falciparum. The experiment in a line: Antiplasmodial activity against sexual blood stage of Plasmodium falciparum. The data set is classed as functional, organism-based.
A short description of data set [22]: Half life in po dosed Sprague-Dawley rat by LC/MS/MS analysis. The settings on record: in vivo. The data set is classed as ADME, organism-based.
For data set [23], the system named is Plasmodium falciparum. Nature of the data set: Antimalarial activity against Plasmodium falciparum VS/1 expressing DHFR quadruple mutation infected in po dosed SCID mouse assessed as reduction in parasitemia administered 3 days post infection measured on day 6. The data set is classed as functional. The settings on record: VS/1, po.
The nature of data set [24]: Oral bioavailability in Sprague-Dawley rat. Format: ADME, organism-based. The settings on record: in vivo.
The nature of data set [25]: Half life in Sprague-Dawley rat at 3 mg/kg, iv. The data set is classed as ADME, organism-based. Conditions: in vivo. Also on record: dose 3 mg/kg, route intravenous.
Data set [26] relates to Plasmodium falciparum. Nature of the data set: Antiplasmodial activity against chloroquine and antifolate-sensitive Plasmodium falciparum TM4 after 24 hrs by [3H]-hypoxanthine incorporation assay. Format: functional, organism-based.
The test system of data set [27] is Plasmodium falciparum. Nature of the data set: Antiplasmodial activity against erythrocytic stage of multidrug-resistant Plasmodium falciparum K1. The data set is classed as functional, organism-based.
In data set [28] the test system is Plasmodium falciparum. The experiment in a line: Antiplasmodial activity against drug-sensitive Plasmodium falciparum 3D7. Format: functional, organism-based.
For data set [29], the system named is Plasmodium berghei. The experiment in a line: Antimalarial activity against Plasmodium berghei ANKA infected in mouse assessed as reduction in parasitemia at 40 mg/kg, ip relative to control. The data set is classed as functional. The settings on record: route intraperitoneal.
Data set [30] is described as follows: Half life in po dosed rat. The settings on record: in vivo.
Data set [31] has as its system Plasmodium berghei. The experiment in a line: Antimalarial activity against Plasmodium berghei infected in po dosed mouse. Format: functional.

The half-life is the time needed for the level to fall by half in the phase considered. Read a low half-life as fast loss. `C[C@H]1[C@@H](O)O[C@@H]2O[C@@]3(C)CC[C@H]4[C@H](C)CC[C@@H]1[C@@]24OO3` [ARTENIMOL]: in [1], the half-life is 1 h.

What is called pIC50 is the negative decadic logarithm of the IC50, by convention in mol/L. A higher pIC50 goes with a small IC50. Take `CCc1nc(N)nc(N)c1-c1ccc(Cl)cc1` [PYRIMETHAMINE]: the results for the negative logarithm of the IC50 (pIC50) in the data set on Plasmodium falciparum [2] and in the data set on Plasmodium falciparum [3] were 7.24 and below 4.00, respectively.

In general, pEC50 refers to −log10 of the EC50, conventionally taken in molar units. Read a high pEC50 as a low EC50. In the case of `CCOc1ccc(F)cc1C1(O)C(N)=Nc2ccc(Cl)cc21` (stereo not drawn), the values for the pEC50 in the data set with Plasmodium falciparum [4] and in the data set on Plasmodium falciparum [5] were 7.55 and 7.19, respectively. This compound showed an ED99 in the data set on Plasmodium falciparum [6] of 100 mg/kg/day.

A word on the ED50: it is the midpoint of the dose-response relation. Compound `Clc1ccc2c(N3CCN(CCCN4CCN(c5ccnc6cc(Cl)ccc56)CC4)CC3)ccnc2c1` [PIPERAQUINE] gave a half-life in data set [1] of 192 h. Further, in the data set with Plasmodium falciparum [7], the ED50 stood at 4.5 mg/kg. The pEC50 with Plasmodium falciparum [8] is 7.90.

Take `C[C@H]1[C@H](N2CCS(=O)(=O)CC2)O[C@@H]2O[C@@]3(C)CC[C@H]4[C@H](C)CC[C@@H]1[C@@]24OO3` [ARTEMIFONE]: the “fold change (FC)” value with Plasmodium berghei [9] is reported as 4; in the data set on Plasmodium falciparum [12], 10. For the same compound, the ED50 with Plasmodium berghei [10] came to 2 mg/kg/day. The same compound gave a pEC50 in the data set on Plasmodium falciparum [11] of 9.06.

`CC(=O)N1CCN(c2ccc(CN(C(=O)/C=C/c3ccc(C(F)(F)F)cc3)[C@@H](Cc3ccccc3)C(=O)N3CCN(Cc4ccc(N(C)CCO)cc4)CC3)cc2)CC1` gave a pEC50 in the data set with Plasmodium falciparum [13] of 9.00. The values for the ED90 with Plasmodium berghei [14] and with Plasmodium falciparum [15] were 54 mg/kg/day and 8.4 mg/kg/day, respectively.

Regarding `C[C@@H]1CC[C@H]2[C@@H](C)C(=O)O[C@@H]3O[C@@]4(C)CC[C@@H]1[C@]32OO4` [ARTEMISININ], the pEC50 with Plasmodium falciparum [16] is 7.82.

As a reminder, the bioavailability is dose-corrected exposure relative to a reference, in per cent. Read a high bioavailability as good availability. In the data set on Plasmodium vinckei, `C/C(=C1\CCOC(=O)S1)N(C=O)CCCCCCCCCCCCN(C=O)/C(C)=C1/CCOC(=O)S1` yielded an ED50 of 5 mg/kg/day. The compound further gave a bioavailability in data set [17] of 15%.

With `CCCCCCCCCCOc1cc2c(O)c(C(=O)OCC)cnc2cc1OCC` [DECOQUINATE], the pIC50 in data set [18] was 8.70. For the same compound, the pEC50 in the data set on Plasmodium falciparum [19] was 8.00; in the data set with Plasmodium yoelii, 8.59; in the data set on Plasmodium falciparum [21], 7.44. For the same compound, in data set [20], the Ratio IC50 was above 5000.

Consider `CCc1nc(N)nc(N)c1OCCCOc1ccccc1CCC(=O)O.Cl`, for which the pIC50 in the data set on Plasmodium falciparum [2] is 8.34; in the data set on Plasmodium falciparum [3], 7.25. In data set [22], the half-life was 7.3 h. Also, in the data set on Plasmodium falciparum [23], the ED50 stood at 0.3 mg/kg/day. The bioavailability in data set [24] is 46%.

In the case of `CC(C)(N)CNC(=O)C[C@H]1CC[C@]2(CC1)OO[C@]1(O2)C2CC3CC(C2)CC1C3` [OZ277], in data set [25], the half-life is 1 h.

Consider `CC1(C)N=C(N)N=C(N)N1c1ccc(Cl)cc1` [CYCLOGUANIL], for which, in the data set on Plasmodium falciparum [26], the pEC50 was 7.42.

With `CSc1ccc2nc(N(Cc3cccnc3)C(=O)c3ccc(C(C)(C)C)cc3)sc2c1`, in the data set with Plasmodium falciparum [27], the pEC50 was 6.49.

Turning to `COc1cc2nc(N3CCCN(C)CC3)nc(NC3CCN(Cc4ccccc4)CC3)c2cc1OC`, the pEC50 in the data set with Plasmodium falciparum [28] is 7.12. The “fold change (FC)” value in the data set with Plasmodium berghei [29] is on record as 2.

In turn, `C[C@H]1Cc2c([nH]c3cc(Cl)c(F)cc23)[C@@]2(N1)C(=O)Nc1ccc(Cl)cc12` [CIPARGAMIN] gave a half-life in data set [30] of 27 h. In the data set on Plasmodium falciparum [28], this compound gave a pEC50 of 9.15. Moreover, the bioavailability in data set [17] turned out to be 100%. In the data set with Plasmodium berghei [31], this compound had an ED50 of 1.2 mg/kg.
